# In patent publication US20230124764A1, “LACTOBACILLUS HARBINENSIS AND APPLICATION THEREOF” (priority 2018, published 2023):
# Like-named read-outs stand apart in the source and are kept apart here.
# How the values were obtained:
# [1] = test system: Schleiferilactobacillus harbinensis M1; assay: Antibiotic sensitivity, MIC on antibacterial MRS agar plates; format: cell-based; conditions: for MIC: Schleiferilactobacillus harbinensis
# Procedure: (§1) According to the criteria for determining bacterial resistance (2012 edition) stipulated by the European Food Safety Agency, antibiotics including ampicillin, vancomycin, gentamicin, kanamycin, streptomycin, erythromycin, clindamycin, tetracycline and chloramphenicol were used to prepare antibacterial stock solutions with a concentration of 5120 μg/mL. They were diluted to the required concentration by a diluent preparation method before use, and were added to the corresponding medium according with certain proportion. 9.0 mL of the modified MRS agar media were added into large test tubes. After sterilizing at 121° C. for 15 min, they were placed in a water bath (50° C.) at a constant temperature for later use. 1.0 mL of the antibacterial diluents were pipetted into the large test tubes, followed by vortexing and mixing immediately. The diluents were then poured into a sterile petri dish, and bacteriostatic plates with a certain drug concentration (μg/mL) were prepared after solidification. For each antibiotics, 8 concentration gradient antibacterial plates were prepared according to a ½ dilution method. […] At the same time, a blank plate without inoculation was used as a control. […] 3 parallel experiments were conducted. The lactic acid bacteria susceptibility result was shown in Table 1 determined according to the relevant standards: […] The second step was the preparation of antibacterial plates: antibiotics including ampicillin, vancomycin, gentamicin, kanamycin, streptomycin, erythromycin, clindamycin, tetracycline and chloramphenicol were used to prepare antibacterial stock solutions at a concentration of […]. The solutions were diluted to the required concentration before use according to a diluent preparation method. 1.0 mL of the antibacterial diluents were pipetted into large test tubes with 9.0 mL of modified MRS agar media, followed by vortexing and mixing immediately. Then, they were poured on sterile plates. After solidification, antibacterial plates with a certain antibiotic concentration (m/mL) were obtained. At the same time, a control plate without antibiotic was prepared. […] At the same time, a blank plate without inoculation was used as a control.
# [2] = test system: Lacticaseibacillus casei-01; assay: as above; format: cell-based; conditions: for MIC: Lacticaseibacillus
# Procedure: as §1
# [3] = against S. harbinensis M1, agar plates, 37° C., 16-20 hours, read-out: MIC value
# [4] = CASEI01, against L. casei-01, agar plates, 37° C., 16-20 hours, read-out: MIC value
Molecule,"MIC [1, 3] [µg/mL]","MIC [2, 4] [µg/mL]",further results
CC1(C)S[C@@H]2[C@H](NC(=O)[C@H](N)c3ccccc3)C(=O)N2[C@H]1C(=O)O [ampicillin],1,1,
O=C(N[C@H](CO)[C@H](O)c1ccc([N+](=O)[O-])cc1)C(Cl)Cl [chloramphenicol],2,4,
CCC[C@@H]1C[C@@H](C(=O)N[C@@H]([C@H]2O[C@H](SC)[C@H](O)[C@@H](O)[C@H]2O)[C@H](C)Cl)N(C)C1 [clindamycin],0.5,0.125,
CC[C@H]1OC(=O)[C@H](C)[C@@H](O[C@H]2C[C@@](C)(OC)[C@@H](O)[C@H](C)O2)[C@H](C)[C@@H](O[C@@H]2O[C@H](C)C[C@H](N(C)C)[C@H]2O)[C@](C)(O)C[C@@H](C)C(=O)[C@H](C)[C@@H](O)[C@]1(C)O [erythromycin],0.5,0.5,
NC[C@H]1O[C@H](O[C@H]2[C@H](O)[C@@H](O[C@H]3O[C@H](CO)[C@@H](O)[C@H](N)[C@H]3O)[C@H](N)C[C@@H]2N)[C@H](O)[C@@H](O)[C@@H]1O [kanamycin],16,16,
[H]/N=C(/N)N[C@H]1[C@H](O)[C@@H](O)[C@H](O[C@@H]2O[C@@H](C)[C@](O)(C=O)[C@H]2O[C@@H]2O[C@@H](CO)[C@H](O)[C@@H](O)[C@@H]2NC)[C@@H](N/C(N)=N\[H])[C@@H]1O [streptomycin],8,16,
CN(C)[C@@H]1C(O)=C(C(N)=O)C(=O)[C@@]2(O)C(O)=C3C(=O)c4c(O)cccc4[C@@](C)(O)[C@H]3C[C@@H]12 [tetracycline],2,2,
CN[C@H](CC(C)C)C(=O)N[C@H]1C(=O)N[C@@H](CC(N)=O)C(=O)N[C@H]2C(=O)N[C@H]3C(=O)N[C@H](C(=O)N[C@H](C(=O)O)c4cc(O)cc(O)c4-c4cc3ccc4O)[C@H](O)c3ccc(c(Cl)c3)Oc3cc2cc(c3O[C@@H]2O[C@H](CO)[C@@H](O)[C@H](O)[C@H]2O[C@H]2C[C@](C)(N)[C@H](O)[C@H](C)O2)Oc2ccc(cc2Cl)[C@H]1O [vancomycin],,,"MIC ([1]; M1, read-out: MIC value): 2 µg/mL; MIC ([2]; CASEI01, read-out: MIC value): 4 µg/mL"
gentamicin,,,"MIC value ([1]; against S. harbinensis M1, agar plates, 37° C., 16-20 hours): 16 µg/mL; MIC value ([2]; against L. casei-01, agar plates, 37° C., 16-20 hours): 16 µg/mL"
